Test results taken from ChEMBL document CHEMBL4428104, “Synthesis and antibacterial evaluation of hamacanthin B analogues” (2016).
Values after ≈ are worked out from the molar mass of the structure shown.

Columns and labels:
Format in all cases: functional
[1] = test system: Staphylococcus aureus; assay: Antibacterial activity against Staphylococcus aureus SG 511 after 24 hrs by two fold serial dilution method; details: SG 511, 24 h
[2] = test system: Staphylococcus aureus; assay: Antibacterial activity against methicillin resistant Staphylococcus aureus 3089 after 24 hrs by two fold serial dilution method; details: Staphylococcus aureus, 3089, 24 h
[3] = test system: Escherichia coli; assay: Antibacterial activity against multidrug resistant Escherichia coli 1137 after 24 hrs by two fold serial dilution method
[4] = test system: Enterococcus faecalis; assay: Antibacterial activity against multidrug resistant Enterococcus faecalis 5210 after 24 hrs by two fold serial dilution method
[5] = Enterococcus faecalis, 5210, 24 h

| Compound | MIC [1] [µg/mL] | MIC [2] [µg/mL] | MIC ([3]; Escherichia coli, 1137, 24 h) [µg/mL] | MIC [4, 5] [µg/mL] | MIC [3] [µg/mL] | MIC [4] [µg/mL] |
| --- | --- | --- | --- | --- | --- | --- |
| O=C(NCC(=O)c1c[nH]c2cc(Br)ccc12)C(=O)c1c[nH]c2cc(Br)ccc12 | > 40 | > 40 | > 40 | > 40 | – | – |
| CN[C@H](CC(C)C)C(=O)N[C@H]1C(=O)N[C@@H](CC(N)=O)C(=O)N[C@H]2C(=O)N[C@H]3C(=O)N[C@H](C(=O)N[C@H](C(=O)O)c4cc(O)cc(O)c4-c4cc3ccc4O)[C@H](O)c3ccc(c(Cl)c3)Oc3cc2cc(c3O[C@@H]2O[C@H](CO)[C@@H](O)[C@H](O)[C@H]2O[C@H]2C[C@](C)(N)[C@H](O)[C@H](C)O2)Oc2ccc(cc2Cl)[C@H]1O [VANCOMYCIN] | – | 1.25 (≈ 0.863 µM) | – | 2.5 (≈ 1.73 µM) | – | – |
| O=c1[nH]cc(-c2c[nH]c3cc(Br)ccc23)nc1-c1c[nH]c2cc(Br)ccc12 | 10 (≈ 20.7 µM) | 20 (≈ 41.3 µM) | > 40 | 20 (≈ 41.3 µM) | – | – |
| O=C1NC[C@H](c2c[nH]c3cc(Br)ccc23)N[C@@H]1c1c[nH]c2cc(Br)ccc12 | 20 (≈ 41 µM) | 40 (≈ 81.9 µM) | > 40 | > 40 | – | – |
| CCn1cc(C(=O)O)c(=O)c2cc(F)c(N3CCNCC3)cc21 [NORFLOXACIN] | – | > 40 | 1.25 (≈ 3.91 µM) | – | – | – |
| O=C1NC[C@@H](c2c[nH]c3ccccc23)N[C@H]1c1c[nH]c2cc(Br)ccc12 | 40 (≈ 97.7 µM) | > 40 | > 40 | > 40 | – | – |
| GENTAMICIN | – | – | – | – | > 40 | > 40 |
| CN(C)[C@@H]1C(O)=C(C(N)=O)C(=O)[C@@]2(O)C(O)=C3C(=O)c4c(O)cccc4[C@@](C)(O)[C@H]3C[C@@H]12 [TETRACYCLINE] | 0.16 (≈ 0.36 µM) | – | – | – | – | – |
| O=C1NC[C@H](c2c[nH]c3ccccc23)N[C@@H]1c1c[nH]c2cc(Br)ccc12 | 20 (≈ 48.9 µM) | > 40 | > 40 | > 40 | – | – |
| O=C(NCC(=O)c1c[nH]c2ccccc12)C(=O)c1c[nH]c2cc(Br)ccc12 | > 40 | > 40 | > 40 | > 40 | – | – |
| O=c1[nH]cc(-c2c[nH]c3ccccc23)nc1-c1c[nH]c2cc(Br)ccc12 | 2.5 (≈ 6.17 µM) | 20 (≈ 49.4 µM) | > 40 | > 40 | – | – |
| O=C1NC[C@@H](c2c[nH]c3cc(Br)ccc23)N[C@H]1c1c[nH]c2cc(Br)ccc12 [CIS-3,4-DIHYDROHAMACANTHIN B] | 10 (≈ 20.5 µM) | 20 (≈ 41 µM) | > 40 | 40 (≈ 81.9 µM) | – | – |
